# Data published in US9364496B2 (ONCOGENEX TECHNOLOGIES INC., priority 2013, dated 2016).
# Where “and” joins values, the source holds several entries; their conditions need not be identical. Equal values may be shown once. Entries after “also recorded” stand apart in the source; their conditions may differ. Read-outs that look alike come from different tables or passages of the source.
# Key:
# [1] = test system: RPMI 8226 (human myeloma) xenograft; assay: In vivo activity of custirsen with Velcade, RPMI 8226 xenograft (Example 14); conditions: for efficacy (tumor growth), in words: Velcade 0.5 mg/kg iv; for Day 27 Δ volume / Day 34 Δ volume / Day 41 Δ volume / Day 45 Δ volume: vs Day 20
# Method: The cells were implanted subcutaneously into female SCID mice with 7×10^6 cells inoculum.
# Tumors and body weights were measured weekly until termination of the study on day 71. Response to treatment was evaluated for tumor growth inhibition (TGI) and tumor growth delay (TGD).
# 70 CB.17 SCID female mice, 4-6 weeks old, 16-20 grams, obtained from Harlan animal breeding center.
# Sample from the cell suspension was taken for counting (0.3 ml in duplicates for CEDEX) before spun down. Cell viability was 85.6% and live cell concentration was 167×10^5 cells/ml. The pellet was resuspended in HBSS to a final volume of 8 ml.
# Tumors were implanted subcutaneously with RPMI-8226 cells into the right flank of the mouse on Day 0. Each animal received a s.c. injection 7×10^6 cells in 0.1 ml suspension. On day 20, mice were sorted by the optimal tumor volume ([…]) and were allocated into 5 groups of 10 mice. Mice were individually tagged and their tumor volume and body weight were monitored weekly during the study. Tumor size was measured by caliper and calculated using the formula: […]
# The treatment started on […] (0.2 ml per 20 grams v/w) and continued till day 52, after which the remaining mice were left for observation until day 71.
# [2] = cited from earlier work
# [3] = Randomized Phase 2 Study OGX-011-03, custirsen plus docetaxel vs docetaxel; conditions: per arm
# [4] = Velcade 0.5 mg/kg iv biwk, Day 48, individual mice
# [5] = Velcade 0.5 mg/kg iv biwk, Day 51, group mean
# [6] = Velcade 0.5 mg/kg iv biwk, Day 51, individual mice
# [7] = Velcade 0.5 mg/kg iv biwk, day 51
# [8] = Velcade 0.5 mg/kg iv biwk, earlier day (day not given), group mean, tumor
# [9] = Velcade 0.5 mg/kg iv biwk, earlier day (day not given), individual mouse, tumor
# [10] = Velcade 0.5 mg/kg iv biwk, group Mean, n 10
# [11] = Velcade 0.5 mg/kg iv biwk, individual mouse
# [12] = Velcade 0.5 mg/kg iv biwk, later day (day not given), group mean, tumor
# [13] = Velcade 0.5 mg/kg iv biwk, later day (day not given), individual mouse, tumor
smiles,measurement,setting,value
"CC(C)C[C@H](NC(=O)[C@H](Cc1ccccc1)NC(=O)c1cnccn1)B(O)O [Velcade®, Bortezomib, reference compound]","efficacy (tumor growth), in words",[1],moderate but not statistically significant efficacy; also recorded: moderate and not statistically significant effect
same,volume,"[1]; Velcade 0.5 mg/kg iv biwk, Day 48, group mean",749.8
same,volume,[1]; [4],520 and 868 and 757 and 647 and 687 and 470 and 1151 and 789
same,Δ volume,[1]; [4],401.6 and 745.2 and 624.2 and 508.9 and 919.1 and 403.8 and 310.7 and 988.8 and 625.7
same,volume,[1]; [5],1027.5
same,Δ volume,[1]; [5],884.2
same,volume,[1]; [6],767 and 1043 and 1313 and 774 and 1432 and 917 and 1635 and 1195
same,Δ volume,[1]; [6],648.2 and 920.6 and 1179.9 and 636.4 and 1291.7 and 474.1 and 768.2 and 418.7 and 1473.4 and 1031.3
same,% TGI day 51,[1]; [7],28%
same,No. of CR,[1]; [7],0
same,No. of PR,[1]; [7],0
same,No. of TRD,[1]; [7],0
same,No. og nTRD,[1]; [7],0
same,"Δ mean tumor volume, (mean ± se)",[1]; [7],884 ± 356
same,volume,[1]; [8],1366.1
same,Δ volume,[1]; [8],1224.9
same,volume,[1]; [9],1019 and 1659 and 1885 and 779 and 2196 and 721 and 1500 and 885 and 1651
same,Δ volume,[1]; [9],900.3 and 1536.1 and 1752.5 and 640.9 and 2055.5 and 1351.3 and 724.9 and 1487.1
same,Day 20 volume,[1]; [10],143.2
same,Day 27 volume,[1]; [10],213.1
same,Day 34 volume,[1]; [10],251.6
same,Day 41 volume,[1]; [10],422.8
same,Day 27 Δ volume,[1]; [10],69.9
same,Day 34 Δ volume,[1]; [10],108.3
same,Day 41 Δ volume,[1]; [10],279.5
same,Day 45 Δ volume,[1]; [10],431.8
same,Day 20 volume,[1]; [11],133 and 138 and 141 and 145 and 149 and 160 and 162 and 164
same,Day 27 volume,[1]; [11],225 (2×) and 260 and 235 and 253 and 206 and 231 and 149 and 185 and 162
same,Day 34 volume,[1]; [11],185 and 232 and 255 and 286 and 266 and 285 and 272 and 162 and 343 and 230
same,Day 41 volume,[1]; [11],289 and 481 and 501 and 387 and 491 and 443 and 475 and 269 and 528 and 384
same,Day 45 volume,[1]; [11],430 and 667 and 507 and 733 and 495 and 663 and 351 and 744
same,Day 27 Δ volume,[1]; [11],137.0 and 102.2 and 115.3 and 65.3 and 85.8 and −0.6 and 25.6 and 63.7 and −2.2
same,Day 34 Δ volume,[1]; [11],66.0 and 109.0 and 148.3 and 140.0 and 2.9 and 181.4 and 65.9
same,Day 41 Δ volume,[1]; [11],170.3 and 358.8 and 368.2 and 249.1 and 349.9 and 297.3 and 325.8 and 109.0 and 366.6 and 200.2
same,Day 45 Δ volume,[1]; [11],311.5 and 488.4 and 368.7 and 350.1 and 514.1 and 191.8 and 374.8
same,volume,[1]; [12],1236.8
same,Δ volume,[1]; [12],1096.4
same,volume,[1]; [13],1484 and 881 and 1166 and 1417
same,Δ volume,[1]; [13],1365.3 and 742.6 and 1020.7 and 1257.1
same,"efficacy (tumor growth), in words",[1]; listed as Velcade,moderate
CC(=O)O[C@@]12CO[C@@H]1C[C@H](O)[C@@]1(C)C(=O)[C@H](O)C3=C(C)[C@@H](OC(=O)[C@H](O)[C@@H](NC(=O)OC(C)(C)C)c4ccccc4)C[C@@](O)([C@@H](OC(=O)c4ccccc4)[C@H]21)C3(C)C [Docetaxel],"grade 4 neutropenia (<500 cells/mm^3), patients",[2]; 60 mg/m^2,75%
same,"grade 4 neutropenia (<500 cells/mm^3), patients",[2]; 100 mg/m^2,85%
same,"neutropenia (<2,000 neutrophils/mm3), occurrence",[2]; 60-100 mg/m^2,virtually all patients
same,incidence of elevated creatinine (primarily grade 1/2),[3],5%
